For one molecule, IC50 and Kb results are on record in US20120270915A1, “FATTY ACID AMIDE HYDROLASE INHIHIBITORS FOR TREATING PAIN” (priority 2011, published 2012).

One test has as its target T1, FAAH Rat brain (Rattus norvegicus, UniProt P97612).
T1 construct: from tissue; host or cells: rat brain membranes
T1 sequence (P97612 1-579): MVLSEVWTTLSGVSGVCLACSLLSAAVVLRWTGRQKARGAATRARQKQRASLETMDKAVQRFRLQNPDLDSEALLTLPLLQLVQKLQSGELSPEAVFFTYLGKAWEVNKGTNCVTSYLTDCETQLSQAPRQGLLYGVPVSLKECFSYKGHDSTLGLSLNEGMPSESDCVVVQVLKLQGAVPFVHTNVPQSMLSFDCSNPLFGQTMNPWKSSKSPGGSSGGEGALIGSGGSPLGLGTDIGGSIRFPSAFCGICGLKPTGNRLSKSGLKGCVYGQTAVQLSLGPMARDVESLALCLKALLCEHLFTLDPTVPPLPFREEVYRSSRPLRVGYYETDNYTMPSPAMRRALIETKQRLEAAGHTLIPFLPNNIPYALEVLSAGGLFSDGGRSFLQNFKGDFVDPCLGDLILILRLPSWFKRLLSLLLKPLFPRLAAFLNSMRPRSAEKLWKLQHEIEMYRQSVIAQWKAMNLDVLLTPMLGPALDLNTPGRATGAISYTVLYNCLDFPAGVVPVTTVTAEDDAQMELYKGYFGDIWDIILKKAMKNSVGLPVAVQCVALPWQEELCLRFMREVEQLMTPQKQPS
The experiment in a line: FAAH inhibitory activity, rat brain membranes, [14C]-AEA hydrolysis. The format is biochemical. To be noted: Table 2; rat brain; read-out: FAAH Rat brain IC50. How it is done:
The compounds of Examples 12, and 19 are tested for FAAH inhibitory activity as follows:
Method 1: Membranes obtained from rat brain are incubated with 2 mM [^14C]-AEA, 30 min at 37° C. at pH values ranging from 9.00 to 10.00 in presence and absence of tested compounds in a final volume of […]. Incubation is stopped by extraction with CHCl3/MeOH (1:1) and the aqueous phases containing [^14C]-Ethanolamine produced by [^14C]-AEA hydrolysis are measured.

Another test addresses T2, DP receptor (Homo sapiens, UniProt Q13258).
T2 sequence (Q13258 1-359): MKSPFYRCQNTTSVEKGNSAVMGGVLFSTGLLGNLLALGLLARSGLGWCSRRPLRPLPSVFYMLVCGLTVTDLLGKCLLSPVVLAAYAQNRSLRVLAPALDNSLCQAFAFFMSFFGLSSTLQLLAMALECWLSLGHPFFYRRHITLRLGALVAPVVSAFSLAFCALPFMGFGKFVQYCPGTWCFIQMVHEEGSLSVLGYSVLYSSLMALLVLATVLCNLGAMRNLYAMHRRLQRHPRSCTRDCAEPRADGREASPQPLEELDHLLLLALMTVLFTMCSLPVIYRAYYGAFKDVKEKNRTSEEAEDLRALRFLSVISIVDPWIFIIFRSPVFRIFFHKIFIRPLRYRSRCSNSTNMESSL
Kind of test: Prostanoid receptor antagonism (FLIPR), DP. The format is cell-based. To be noted: Table 2.

In the next test the target is T3, EP1 receptor (Homo sapiens, UniProt P34995).
T3 sequence (P34995 1-402): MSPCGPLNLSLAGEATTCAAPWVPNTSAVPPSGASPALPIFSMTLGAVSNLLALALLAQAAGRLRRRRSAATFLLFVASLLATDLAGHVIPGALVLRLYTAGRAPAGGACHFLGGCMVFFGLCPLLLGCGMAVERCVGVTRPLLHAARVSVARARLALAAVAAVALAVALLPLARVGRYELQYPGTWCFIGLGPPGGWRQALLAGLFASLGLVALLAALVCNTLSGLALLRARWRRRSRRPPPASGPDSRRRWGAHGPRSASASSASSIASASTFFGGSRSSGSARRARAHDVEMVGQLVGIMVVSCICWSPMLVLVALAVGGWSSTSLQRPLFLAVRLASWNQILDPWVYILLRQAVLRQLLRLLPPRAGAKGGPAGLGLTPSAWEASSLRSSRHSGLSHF
Kind of test: Prostanoid receptor antagonism (FLIPR), EP1. It counts as cell-based. To be noted: Table 2.

The next test concerns the target FP receptor (Homo sapiens, UniProt P43088). Kind of test: Prostanoid receptor antagonism (FLIPR), FP. The note with it: Table 2. The format is cell-based.
In another test the target is EP4 receptor (Homo sapiens, UniProt P35408). Kind of test: Prostanoid receptor antagonism (FLIPR), EP4. The format is cell-based. To be noted: Table 2.
EP4 receptor, sequence (P35408 whole entry): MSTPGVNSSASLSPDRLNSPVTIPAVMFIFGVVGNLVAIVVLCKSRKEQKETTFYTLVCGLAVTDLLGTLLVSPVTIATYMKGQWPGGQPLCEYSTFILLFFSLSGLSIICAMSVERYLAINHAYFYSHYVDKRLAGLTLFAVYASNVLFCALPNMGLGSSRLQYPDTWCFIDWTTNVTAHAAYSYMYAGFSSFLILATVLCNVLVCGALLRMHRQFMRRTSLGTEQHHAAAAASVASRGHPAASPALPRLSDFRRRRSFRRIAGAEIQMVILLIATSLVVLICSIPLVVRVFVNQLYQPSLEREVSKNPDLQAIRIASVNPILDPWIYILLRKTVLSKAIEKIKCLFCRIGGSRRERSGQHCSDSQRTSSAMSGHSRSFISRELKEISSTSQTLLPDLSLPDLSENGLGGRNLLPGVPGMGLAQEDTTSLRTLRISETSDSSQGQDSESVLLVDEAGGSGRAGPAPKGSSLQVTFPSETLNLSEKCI
The target of a further test is EP2 receptor (Homo sapiens, UniProt P43116). The experiment in a line: Prostanoid receptor antagonism (FLIPR), EP2. It counts as cell-based. To be noted: Table 2, NA = inactive.
EP2 receptor, sequence (P43116 whole entry): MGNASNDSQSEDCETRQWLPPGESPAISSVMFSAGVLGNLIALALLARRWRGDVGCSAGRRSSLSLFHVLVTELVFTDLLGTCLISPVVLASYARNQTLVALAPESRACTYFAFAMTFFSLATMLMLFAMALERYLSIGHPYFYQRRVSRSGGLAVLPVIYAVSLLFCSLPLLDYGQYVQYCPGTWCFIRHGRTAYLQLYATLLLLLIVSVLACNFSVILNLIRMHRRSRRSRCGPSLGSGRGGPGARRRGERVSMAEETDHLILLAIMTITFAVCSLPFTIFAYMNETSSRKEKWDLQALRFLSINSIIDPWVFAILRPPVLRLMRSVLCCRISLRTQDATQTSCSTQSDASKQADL
The next test deals with IP receptor (Homo sapiens, UniProt P43119). Kind of test: Prostanoid receptor antagonism (FLIPR), IP. It counts as cell-based. The note with it: Table 2, NA = inactive.
IP receptor, sequence (P43119 whole entry): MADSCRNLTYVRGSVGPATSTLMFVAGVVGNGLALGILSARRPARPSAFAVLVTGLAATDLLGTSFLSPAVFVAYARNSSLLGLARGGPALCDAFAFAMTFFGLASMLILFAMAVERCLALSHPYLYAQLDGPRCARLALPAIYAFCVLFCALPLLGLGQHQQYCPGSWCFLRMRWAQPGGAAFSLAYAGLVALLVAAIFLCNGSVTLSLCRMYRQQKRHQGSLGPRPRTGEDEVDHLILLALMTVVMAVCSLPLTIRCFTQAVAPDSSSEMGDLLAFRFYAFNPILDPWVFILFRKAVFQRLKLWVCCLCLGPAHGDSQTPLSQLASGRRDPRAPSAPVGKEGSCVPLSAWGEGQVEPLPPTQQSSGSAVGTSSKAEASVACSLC
Another test addresses T4, EP3 receptor (Homo sapiens, UniProt P43115).
T4 sequence (P43115 1-390): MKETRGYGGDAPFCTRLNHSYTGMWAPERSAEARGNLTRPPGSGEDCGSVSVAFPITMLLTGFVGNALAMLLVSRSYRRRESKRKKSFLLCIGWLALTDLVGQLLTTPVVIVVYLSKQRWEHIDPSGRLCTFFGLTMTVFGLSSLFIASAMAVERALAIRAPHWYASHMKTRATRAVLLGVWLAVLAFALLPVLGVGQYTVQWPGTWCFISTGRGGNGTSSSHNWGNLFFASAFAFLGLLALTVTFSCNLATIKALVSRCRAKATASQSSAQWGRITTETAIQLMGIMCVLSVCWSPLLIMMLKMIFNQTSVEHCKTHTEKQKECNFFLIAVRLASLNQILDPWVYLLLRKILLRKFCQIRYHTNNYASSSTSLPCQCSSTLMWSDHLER
Kind of test: Prostanoid receptor antagonism (FLIPR), EP3. It counts as cell-based. To be noted: Table 2.

The target in a further test is T5, TP receptor (Homo sapiens, UniProt P21731).
T5 sequence (P21731 1-343): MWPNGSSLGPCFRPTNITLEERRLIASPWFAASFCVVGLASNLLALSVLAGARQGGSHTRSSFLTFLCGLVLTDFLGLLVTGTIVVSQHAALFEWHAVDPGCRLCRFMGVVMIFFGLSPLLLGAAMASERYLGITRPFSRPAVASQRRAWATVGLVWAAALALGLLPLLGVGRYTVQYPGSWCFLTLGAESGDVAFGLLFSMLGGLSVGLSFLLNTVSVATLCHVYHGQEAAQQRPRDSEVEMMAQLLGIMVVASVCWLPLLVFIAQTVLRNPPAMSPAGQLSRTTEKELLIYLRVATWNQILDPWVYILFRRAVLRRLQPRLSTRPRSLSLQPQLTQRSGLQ
The experiment in a line: Prostanoid receptor antagonism (FLIPR), TP. It counts as cell-based. The note with it: Table 2.

FP receptor, sequence (P43088 whole entry): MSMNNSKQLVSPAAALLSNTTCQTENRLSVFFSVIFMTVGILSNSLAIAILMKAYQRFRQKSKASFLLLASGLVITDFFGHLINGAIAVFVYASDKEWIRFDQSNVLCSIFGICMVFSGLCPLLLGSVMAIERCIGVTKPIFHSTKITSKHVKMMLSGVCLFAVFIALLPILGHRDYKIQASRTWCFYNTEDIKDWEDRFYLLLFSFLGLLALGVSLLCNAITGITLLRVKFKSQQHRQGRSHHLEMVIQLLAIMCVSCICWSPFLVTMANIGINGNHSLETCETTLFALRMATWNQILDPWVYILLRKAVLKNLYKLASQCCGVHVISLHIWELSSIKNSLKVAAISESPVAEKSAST

One may read the IC50 as the concentration needed to halve the response being measured. In general, Kb refers to the affinity of an antagonist, worked out from how it opposes an agonist. A lower Kb goes with a more potent antagonist. As for `CCS(=O)(=O)NC(=O)CCc1ccc(OC)cc1CN1CCC[C@H]1c1nc(C(=O)NCCCCC2CCCCC2)co1` [Example 12l, (S)—N-(4-cyclohexylbutyl)-2-(1-(5-methoxy-2-(3-oxo-3-(ethylsulfonamido)propyl)benzyl)pyrrolidin-2-yl)oxazole-4-carboxamide], the IC50 at FAAH Rat brain is 240 nM. The antagonist dissociation constant (Kb) at DP receptor is 40 nM; at EP1 receptor, 180 nM; at FP receptor, 1600 nM; at EP4 receptor, 160 nM; on EP2 receptor, 1800 nM; at IP receptor, 6900 nM. Further, the figures for the antagonist equilibrium constant (Kb) on EP3 receptor and on TP receptor were 910 nM and 11 nM, respectively.
